According to patent US20250312352A1, “GLP-1R MODULATING COMPOUNDS” (Gilead Sciences, Inc., priority 2021, published 2025):

Molecular target: T1, GLP-1R (Homo sapiens, UniProt P43220)
T1 construct: host or cells: CHO cells
Test: GLP-1R activation cAMP assay (Assay 1 or Assay 2)
Assay type: cell-based
Details: cAMP increase in CHO cells stably expressing GLP-1R; compounds run on one of the two cAMP assays
Summary of the method: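 EC50 values come from a sigmoidal fit of HTRF-detected cAMP rise versus log agonist concentration. GLP-1R-expressing CHO cells, equilibrated 1 h at 37 °C in HBSS with HEPES and BSA, received a 10-point compound dose series for 30 min before detection.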

T1 sequence (P43220 24-463): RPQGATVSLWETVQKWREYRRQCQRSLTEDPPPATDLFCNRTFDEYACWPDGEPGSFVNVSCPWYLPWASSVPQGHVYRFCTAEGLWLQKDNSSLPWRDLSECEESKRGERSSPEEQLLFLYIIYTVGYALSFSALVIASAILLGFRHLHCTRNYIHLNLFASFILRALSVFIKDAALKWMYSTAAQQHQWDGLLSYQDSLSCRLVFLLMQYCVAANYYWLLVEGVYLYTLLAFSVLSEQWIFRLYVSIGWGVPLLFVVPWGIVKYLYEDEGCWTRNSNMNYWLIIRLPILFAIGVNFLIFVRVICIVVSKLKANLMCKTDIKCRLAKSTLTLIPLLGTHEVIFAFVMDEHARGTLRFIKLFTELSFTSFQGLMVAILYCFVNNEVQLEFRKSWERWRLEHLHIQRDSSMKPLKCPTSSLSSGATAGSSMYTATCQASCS

| EC50 | SMILES |
| --- | --- |
| 0.669 nM | COc1nnc(COc2cccc(-c3cc(Cl)c(Cc4nc5ccc(C(=O)O)cc5n4[C@@H]4COCC4(C)C)cc3C)n2)s1 [Example 442, (S)-2-(2-chloro-4-(6-((5-methoxy-1,3,4-thiadiazol-2-yl)methoxy)pyridin-2-yl)-5-methylbenzyl)-1-(4,4-dimethyltetrahydrofuran-3-yl)-1H-benzo[d]imidazole-6-carboxylic acid] |
| 1.9 nM | COc1nnc(COc2cccc(-c3cc(F)c(Cc4nc5ccc(C(=O)O)cc5n4CC4(CF)CC4)cc3F)n2)s1 [Example 272, 2-(2,5-difluoro-4-(6-((5-methoxy-1,3,4-thiadiazol-2-yl)methoxy)pyridin-2-yl)benzyl)-1-((1-(fluoromethyl)cyclopropyl)methyl)-1H-benzo[d]imidazole-6-carboxylic acid] |
| 0.27 nM | O=C(O)c1ccc2nc(Cc3cc(F)c(-c4cccc(OCc5ccc(-c6cn([C@H]7CCOC7)nn6)cc5F)n4)cc3F)n(C[C@@H]3CCO3)c2c1 [Example 217, 2-(2,5-difluoro-4-(6-((2-fluoro-4-(1-((S)-tetrahydrofuran-3-yl)-1H-1,2,3-triazol-4-yl)benzyl)oxy)pyridin-2-yl)benzyl)-1-(((S)-oxetan-2-yl)methyl)-1H-benzo[d]imidazole-6-carboxylic acid] |
| 0.262 nM | Cc1cc(C#Cc2cnn(C)c2)cnc1COc1cccc(-c2cc(F)c(Cc3nc4ccc(C(=O)O)cc4n3C[C@@H]3CCO3)cc2F)n1 [Example 289, (S)-2-(2,5-difluoro-4-(6-((3-methyl-5-((1-methyl-1H-pyrazol-4-yl)ethynyl)pyridin-2-yl)methoxy)pyridin-2-yl)benzyl)-1-(oxetan-2-ylmethyl)-1H-benzo[d]imidazole-6-carboxylic acid] |
| 0.096 nM | CC1(C)COC[C@H]1n1c(Cc2cc(F)c(-c3cccc(OCc4sc(C#N)cc4F)n3)cc2F)nc2ccc(C(=O)O)cc21 [Example 419, (S)-2-(4-(6-((5-cyano-3-fluorothiophen-2-yl)methoxy)pyridin-2-yl)-2,5-difluorobenzyl)-1-(4,4-dimethyltetrahydrofuran-3-yl)-1H-benzo[d]imidazole-6-carboxylic acid] |
| 0.58 nM | Cc1cc(Cc2nc3ccc(C(=O)O)cc3n2C[C@@H]2CCO2)c(F)cc1-c1cccc(OCc2ncc(-c3cnn(C(F)F)c3)s2)n1 [Example 331, (S)-2-(4-(6-((5-(1-(difluoromethyl)-1H-pyrazol-4-yl)thiazol-2-yl)methoxy)pyridin-2-yl)-2-fluoro-5-methylbenzyl)-1-(oxetan-2-ylmethyl)-1H-benzo[d]imidazole-6-carboxylic acid] |
| 1.98 nM | O=C(O)c1ccc2nc(Cc3cc(F)c(-c4cccc(OCc5ccn(-c6ccc(F)cc6)n5)n4)cc3F)n(C[C@@H]3CCO3)c2c1 [Example 62, (S)-2-(2,5-difluoro-4-(6-((1-(4-fluorophenyl)-1H-pyrazol-3-yl)methoxy)pyridin-2-yl)benzyl)-1-(oxetan-2-ylmethyl)-1H-benzo[d]imidazole-6-carboxylic acid] |
| 1.93 nM | O=C(O)c1ccc2nc(Cc3cc(F)c(-c4cccc(OCc5cc6n(n5)CCCC6)n4)cc3F)n(C[C@@H]3CCO3)c2c1 [Example 70, (S)-2-(2,5-difluoro-4-(6-((4,5,6,7-tetrahydropyrazolo[1,5-a]pyridin-2-yl)methoxy)pyridin-2-yl)benzyl)-1-(oxetan-2-ylmethyl)-1H-benzo[d]imidazole-6-carboxylic acid] |
| 0.459 nM | CC1(COc2nnc(COc3cccc(-c4cc(F)c(Cc5nc6ccc(C(=O)O)cc6n5C[C@@H]5CCO5)cc4F)n3)s2)CC1 [Example 343, (S)-2-(2,5-difluoro-4-(6-((5-((1-methylcyclopropyl)methoxy)-1,3,4-thiadiazol-2-yl)methoxy)pyridin-2-yl)benzyl)-1-(oxetan-2-ylmethyl)-1H-benzo[d]imidazole-6-carboxylic acid] |
| 0.305 nM | Cn1cc(C#Cc2ccc(COc3cccc(-c4cc(F)c(Cc5nc6c(F)cc(C(=O)O)cc6n5C[C@@H]5CCO5)cc4F)n3)cn2)cn1 [Example 391, (S)-2-(2,5-difluoro-4-(6-((6-((1-methyl-1H-pyrazol-4-yl)ethynyl)pyridin-3-yl)methoxy)pyridin-2-yl)benzyl)-4-fluoro-1-(oxetan-2-ylmethyl)-1H-benzo[d]imidazole-6-carboxylic acid] |
| 0.196 nM | Cn1cc(C#Cc2cnc(COc3cccc(-c4cc(F)c(Cc5nc6c(F)cc(C(=O)O)cc6n5CC5(CF)CC5)cc4F)n3)c(F)c2)cn1 [Example 274, 2-(2,5-difluoro-4-(6-((3-fluoro-5-((1-methyl-1H-pyrazol-4-yl)ethynyl)pyridin-2-yl)methoxy)pyridin-2-yl)benzyl)-4-fluoro-1-((1-(fluoromethyl)cyclopropyl)methyl)-1H-benzo[d]imidazole-6-carboxylic acid] |
| 0.11 nM | N#CCNC(=O)c1ccc(COc2cccc(-c3cc(F)c(Cc4nc5ccc(C(=O)O)cc5n4C[C@@H]4CCO4)cc3F)n2)cn1 [Example 175, (S)-2-(4-(6-((6-((cyanomethyl)carbamoyl)pyridin-3-yl)methoxy)pyridin-2-yl)-2,5-difluorobenzyl)-1-(oxetan-2-ylmethyl)-1H-benzo[d]imidazole-6-carboxylic acid] |
| 0.14 nM | O=C(O)c1ccc2nc(Cc3cc(F)c(-c4cccc(OCc5ncc(-c6cncs6)s5)n4)cc3F)n(C[C@@H]3CCO3)c2c1 [Example 101, (S)-2-(4-(6-([5,5′-bithiazol]-2-ylmethoxy)pyridin-2-yl)-2,5-difluorobenzyl)-1-(oxetan-2-ylmethyl)-1H-benzo[d]imidazole-6-carboxylic acid] |
| 0.202 nM | Cn1cc(C#Cc2ccc(COc3nc(-c4cc(F)c(Cc5nc6c(F)cc(C(=O)O)cc6n5C[C@@H]5CCO5)cc4F)ccc3F)cn2)cn1 [Example 295, (S)-2-(2,5-difluoro-4-(5-fluoro-6-((6-((1-methyl-1H-pyrazol-4-yl)ethynyl)pyridin-3-yl)methoxy)pyridin-2-yl)benzyl)-4-fluoro-1-(oxetan-2-ylmethyl)-1H-benzo[d]imidazole-6-carboxylic acid] |
| 0.481 nM | O=C(O)c1cc(F)c2nc(Cc3c(F)cc(-c4ccnc(OCc5nc(C(F)(F)F)cs5)n4)c(F)c3F)n(C[C@@H]3CCO3)c2c1 [Example 377, (S)-4-fluoro-1-(oxetan-2-ylmethyl)-2-(2,3,6-trifluoro-4-(2-((4-(trifluoromethyl)thiazol-2-yl)methoxy)pyrimidin-4-yl)benzyl)-1H-benzo[d]imidazole-6-carboxylic acid] |
| 0.08 nM | N#CC1(NC(=O)c2ccc(COc3cccc(-c4cc(F)c(Cc5nc6c(F)cc(C(=O)O)cc6n5C[C@@H]5CCO5)cc4F)n3)cn2)CC1 [Example 197, (S)-2-(4-(6-((6-((1-cyanocyclopropyl)carbamoyl)pyridin-3-yl)methoxy)pyridin-2-yl)-2,5-difluorobenzyl)-4-fluoro-1-(oxetan-2-ylmethyl)-1H-benzo[d]imidazole-6-carboxylic acid] |
| 0.195 nM | CC1(C)COC[C@H]1n1c(Cc2cc(F)c(-c3cccc(OCc4nnc(C5CC5)s4)n3)cc2F)nc2ccc(C(=O)O)cc21 [Example 431, (S)-2-(4-(6-((5-cyclopropyl-1,3,4-thiadiazol-2-yl)methoxy)pyridin-2-yl)-2,5-difluorobenzyl)-1-(4,4-dimethyltetrahydrofuran-3-yl)-1H-benzo[d]imidazole-6-carboxylic acid] |
| 0.385 nM | O=C(O)c1ccc2nc(Cc3cc(F)c(-c4ccc(F)c(OCc5ncc(C(F)F)s5)n4)cc3F)n(C[C@@H]3CCO3)c2c1 [Example 406, (S)-2-(4-(6-((5-(difluoromethyl)thiazol-2-yl)methoxy)-5-fluoropyridin-2-yl)-2,5-difluorobenzyl)-1-(oxetan-2-ylmethyl)-1H-benzo[d]imidazole-6-carboxylic acid] |
| 0.83 nM | Cn1nc(COc2cccc(-c3cc(F)c(Cc4nc5ccc(C(=O)O)cc5n4C[C@@H]4CCO4)cc3F)n2)cc1C(F)F [Example 40, (S)-2-(4-(6-((5-(difluoromethyl)-1-methyl-1H-pyrazol-3-yl)methoxy)pyridin-2-yl)-2,5-difluorobenzyl)-1-(oxetan-2-ylmethyl)-1H-benzo[d]imidazole-6-carboxylic acid] |
| 1.16 nM | O=C(O)c1ccc2nc(Cc3cc(F)c(-c4cccc(OCc5ccn(C(F)(F)F)n5)n4)cc3F)n(C[C@@H]3CCO3)c2c1 [Example 12, (S)-2-(2,5-difluoro-4-(6-((1-(trifluoromethyl)-1H-pyrazol-3-yl)methoxy)pyridin-2-yl)benzyl)-1-(oxetan-2-ylmethyl)-1H-benzo[d]imidazole-6-carboxylic acid] |
| 730 nM | COCCn1c(Cc2cc(F)c(-c3cccc(OCc4cnn(-c5ccccc5)c4)n3)cc2F)nc2ccc(C(=O)O)cc21 [Example 121, 2-(2,5-difluoro-4-(6-((1-phenyl-1H-pyrazol-4-yl)methoxy)pyridin-2-yl)benzyl)-1-(2-methoxyethyl)-1H-benzo[d]imidazole-6-carboxylic acid] |
| 0.24 nM | C[C@H](C#N)NC(=O)c1cc(Cl)c(COc2cccc(-c3cc(F)c(Cc4nc5ccc(C(=O)O)cc5n4C[C@@H]4CCO4)cc3F)n2)cn1 [Example 200, 2-(4-(6-((4-chloro-6-(((R)-1-cyanoethyl)carbamoyl)pyridin-3-yl)methoxy)pyridin-2-yl)-2,5-difluorobenzyl)-1-(((S)-oxetan-2-yl)methyl)-1H-benzo[d]imidazole-6-carboxylic acid] |
| 0.188 nM | CCOc1nc(Cl)c(COc2cccc(-c3cc(F)c(Cc4nc5ccc(C(=O)O)cc5n4C[C@@H]4CCO4)cc3F)n2)s1 [Example 353, (S)-2-(4-(6-((4-chloro-2-ethoxythiazol-5-yl)methoxy)pyridin-2-yl)-2,5-difluorobenzyl)-1-(oxetan-2-ylmethyl)-1H-benzo[d]imidazole-6-carboxylic acid] |
| 0.31 nM | N#Cc1ccc(COc2cccc(-c3cc(F)c(Cc4nc5ccc(C(=O)O)cc5n4C[C@@H]4CCO4)cc3F)n2)s1 [Example 126, (S)-2-(4-(6-((5-cyanothiophen-2-yl)methoxy)pyridin-2-yl)-2,5-difluorobenzyl)-1-(oxetan-2-ylmethyl)-1H-benzo[d]imidazole-6-carboxylic acid] |
